In the supplement of paper PMC11061612:

Experiments:
Assay in all cases: combination Emax (second highest fraction inhibited in the dose matrix, 72 h); higher = more inhibition; extreme values may be limits of the assay
[1] = tested on: HSC-39 (Gastric Carcinoma)
Method in brief: (§1)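 After 24 hours at 37°C and 5% CO2 in 1536-well plates, cells in DMEM/F12 or RPMI plus 10% FBS received two-drug dose matrices for 72 hours. Viability came from CellTiter-Glo 2.0 luminescence and was scaled as inhibition, anchored at 0 by vehicle wells and at 1 by blank wells. Combination Emax is taken as the second-highest inhibition in the matrix, and Bliss excess as the observed combination effect less EA + EB − EA·EB, with EA and EB the single-agent effects.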

[2] = tested on: PSN1 (Pancreatic Carcinoma)
Method in brief: as §1

[3] = tested on: LB996-RCC (Kidney Carcinoma)
Method in brief: as §1

[4] = tested on: GP5d (Colorectal Carcinoma)
Method in brief: as §1

[5] = tested on: RERF-LC-Sq1 (Squamous Cell Lung Carcinoma)
Method in brief: as §1

[6] = tested on: REH (B-Lymphoblastic Leukemia)
Method in brief: as §1

Cc1c2c(nn1C)CSCc1cc(n(C)n1)CSc1cc(c3ccccc3c1)OCCCc1c(C(=O)O)n(C)c3c-2c(Cl)ccc13 [AZD5991] + Cn1cnc2c(F)c(Nc3ccc(Br)cc3Cl)c(C(=O)NOCCO)cc21 [Selumetinib] (first compound max 1 µM, 7x7, partner max 3 µM)
combination Emax [1]: 1
combination Emax [2]: 0.67
combination Emax [3]: 0.255
combination Emax [4]: 1
combination Emax [5]: 0.479
combination Emax [6]: 0.732

CC(=O)Nc1cccc(-n2c(=O)n(C3CC3)c(=O)c3c(Nc4ccc(I)cc4F)n(C)c(=O)c(C)c32)c1 [Trametinib] + Cc1nc(-c2cn3c(n2)-c2ccc(-c4cnn(C(C)(C)C(N)=O)c4)cc2OCC3)n(C(C)C)n1 [Taselisib] (first compound max 1 µM, 7x7, partner max 10 µM)
combination Emax [1]: 1
combination Emax [2]: 0.946
combination Emax [3]: 0.955
combination Emax [4]: 0.907
combination Emax [5]: 0.981
combination Emax [6]: 0.544

CN(C)CCCOc1ccc(-c2ccc3ncc4c(c3c2)n(C2CCOCC2)c(=O)n4C)cn1 [AZD0156] + C[C@@H]1COCCN1C2=NC(=NC(=C2)C3(CC3)[S@](=N)(=O)C)C4=C5C=CNC5=NC=C4 [AZD6738] (first compound max 1 µM, 7x7, partner max 10 µM)
combination Emax [1]: 1
combination Emax [2]: 0.504
combination Emax [3]: 0.581
combination Emax [4]: 0.883
combination Emax [5]: 0.843
combination Emax [6]: 0.625

Cc1c2c(nn1C)CSCc1cc(n(C)n1)CSc1cc(c3ccccc3c1)OCCCc1c(C(=O)O)n(C)c3c-2c(Cl)ccc13 [AZD5991] + C[C@@H](Nc1cc(F)cc(F)c1)c1cc(C(=O)N(C)C)cc2c(=O)cc(N3CCOCC3)oc12 [AZD8186] (first compound max 1 µM, 7x7, partner max 3 µM)
combination Emax [1]: 1
combination Emax [2]: 0.375
combination Emax [3]: 0.373
combination Emax [4]: 0.817
combination Emax [5]: 0.228
combination Emax [6]: 0.776

CC1(C)CCC(CN2CCN(c3ccc(C(=O)NS(=O)(=O)c4ccc(NCC5CCOCC5)c([N+](=O)[O-])c4)c(Oc4cnc5[nH]ccc5c4)c3)CC2)=C(c2ccc(Cl)cc2)C1 [Venetoclax] + COc1cc(Nc2ncc3c(n2)-c2ccc(Cl)cc2C(c2c(F)cccc2OC)=NC3)ccc1C(=O)O [Alisertib] (first compound max 1 µM, 7x7, partner max 10 µM)
combination Emax [1]: 0.992
combination Emax [2]: 0.526
combination Emax [3]: 0.658
combination Emax [4]: 0.498
combination Emax [5]: 0.42
combination Emax [6]: 0.99

CCN(CCO)CCCOc1ccc2c(Nc3cc(CC(=O)Nc4cccc(F)c4)[nH]n3)ncnc2c1 [AZD2811] + O=C(c1cc(Cc2n[nH]c(=O)c3ccccc23)ccc1F)N1CCN(C(=O)C2CC2)CC1 [Olaparib] (first compound max 1 µM, 7x7, partner max 10 µM)
combination Emax [1]: 0.985
combination Emax [2]: 0.251
combination Emax [3]: 0.315
combination Emax [4]: 0.516
combination Emax [5]: 0.219
combination Emax [6]: 0.487

Cc1cc2ncnn2cc1Nc1ncc2c(n1)n(C1CCOCC1)c(=O)n2C [AZD7648] + CCN(CCO)CCCOc1ccc2c(Nc3cc(CC(=O)Nc4cccc(F)c4)[nH]n3)ncnc2c1 [AZD2811] (first compound max 10 µM, 7x7, partner max 1 µM)
combination Emax [1]: 0.939
combination Emax [2]: 0.397
combination Emax [3]: 0.363
combination Emax [4]: 0.478
combination Emax [5]: 0.261
combination Emax [6]: 0.51

CC1(C)CCC(CN2CCN(c3ccc(C(=O)NS(=O)(=O)c4ccc(NCC5CCOCC5)c([N+](=O)[O-])c4)c(Oc4cnc5[nH]ccc5c4)c3)CC2)=C(c2ccc(Cl)cc2)C1 [Venetoclax] + Cc1cc2ncnn2cc1Nc1ncc2c(n1)n(C1CCOCC1)c(=O)n2C [AZD7648] (first compound max 1 µM, 7x7, partner max 10 µM)
combination Emax [1]: 0.936
combination Emax [2]: 0.37
combination Emax [3]: 0.373
combination Emax [4]: 0.374
combination Emax [5]: 0.229
combination Emax [6]: 0.875

Cc1cc2ncnn2cc1Nc1ncc2c(n1)n(C1CCOCC1)c(=O)n2C [AZD7648] + C[C@@H]1COCCN1C2=NC(=NC(=C2)C3(CC3)[S@](=N)(=O)C)C4=C5C=CNC5=NC=C4 [AZD6738] (first compound max 10 µM, 7x7, partner max 10 µM)
combination Emax [1]: 1
combination Emax [2]: 0.418
combination Emax [3]: 0.668
combination Emax [4]: 0.822
combination Emax [5]: 0.804
combination Emax [6]: 0.771

COc1cccc(OCCCN)c1-c1cc(Nc2cnc(C#N)cn2)n[nH]1 [Prexasertib] + C=CCn1c(=O)c2cnc(Nc3ccc(N4CCN(C)CC4)cc3)nc2n1-c1cccc(C(C)(C)O)n1 [AZD1775] (first compound max 1 µM, partner max 1 µM)
combination Emax [1]: 1
combination Emax [2]: 0.781
combination Emax [3]: 0.877
combination Emax [4]: 1
combination Emax [5]: 0.906
combination Emax [6]: 1

COc1cccc(OCCCN)c1-c1cc(Nc2cnc(C#N)cn2)n[nH]1 [Prexasertib] + Cc1cc2ncnn2cc1Nc1ncc2c(n1)n(C1CCOCC1)c(=O)n2C [AZD7648] (first compound max 1 µM, 7x7, partner max 10 µM)
combination Emax [1]: 1
combination Emax [2]: 0.461
combination Emax [3]: 0.776
combination Emax [4]: 0.964
combination Emax [5]: 0.855
combination Emax [6]: 0.992

CCN(CCO)CCCOc1ccc2c(Nc3cc(CC(=O)Nc4cccc(F)c4)[nH]n3)ncnc2c1 [AZD2811] + C[C@@H]1COCCN1C2=NC(=NC(=C2)C3(CC3)[S@](=N)(=O)C)C4=C5C=CNC5=NC=C4 [AZD6738] (first compound max 1 µM, 7x7, partner max 10 µM)
combination Emax [1]: 1
combination Emax [2]: 0.397
combination Emax [3]: 0.602
combination Emax [4]: 0.845
combination Emax [5]: 0.791
combination Emax [6]: 0.787

CC1(C)CCC(CN2CCN(c3ccc(C(=O)NS(=O)(=O)c4ccc(NCC5CCOCC5)c([N+](=O)[O-])c4)c(Oc4cnc5[nH]ccc5c4)c3)CC2)=C(c2ccc(Cl)cc2)C1 [Venetoclax] + C=CCn1c(=O)c2cnc(Nc3ccc(N4CCN(C)CC4)cc3)nc2n1-c1cccc(C(C)(C)O)n1 [AZD1775] (first compound max 1 µM, partner max 1 µM)
combination Emax [1]: 1
combination Emax [2]: 0.391
combination Emax [3]: 0.758
combination Emax [4]: 0.795
combination Emax [5]: 0.586
combination Emax [6]: 1

CN(CCO)CC[C@H](CSc1ccccc1)Nc1ccc(S(=O)(=O)NC(=O)c2ccc(N3CCC([C@@H](O)c4ccccc4-c4ccc(Cl)cc4)CC3)cc2)cc1S(=O)(=O)C(F)(F)F [AZD4320] + CN(C)CCCOc1ccc(-c2ccc3ncc4c(c3c2)n(C2CCOCC2)c(=O)n4C)cn1 [AZD0156] (first compound max 1 µM, 7x7, partner max 1 µM)
combination Emax [1]: 0.279
combination Emax [2]: 0.315
combination Emax [3]: 0.227
combination Emax [4]: 0.323
combination Emax [5]: 0.194
combination Emax [6]: 1

Cc1c2c(nn1C)CSCc1cc(n(C)n1)CSc1cc(c3ccccc3c1)OCCCc1c(C(=O)O)n(C)c3c-2c(Cl)ccc13 [AZD5991] + CC1(C)CCC(CN2CCN(c3ccc(C(=O)NS(=O)(=O)c4ccc(NCC5CCOCC5)c([N+](=O)[O-])c4)c(Oc4cnc5[nH]ccc5c4)c3)CC2)=C(c2ccc(Cl)cc2)C1 [Venetoclax] (first compound max 1 µM, 7x7, partner max 1 µM)
combination Emax [1]: 1
combination Emax [2]: 0.145
combination Emax [3]: 0.199
combination Emax [4]: 0.928
combination Emax [5]: 0.282
combination Emax [6]: 1

CC1(C)CCC(CN2CCN(c3ccc(C(=O)NS(=O)(=O)c4ccc(NCC5CCOCC5)c([N+](=O)[O-])c4)c(Oc4cnc5[nH]ccc5c4)c3)CC2)=C(c2ccc(Cl)cc2)C1 [Venetoclax] + C[C@@H]1COCCN1C2=NC(=NC(=C2)C3(CC3)[S@](=N)(=O)C)C4=C5C=CNC5=NC=C4 [AZD6738] (first compound max 1 µM, 7x7, partner max 10 µM)
combination Emax [1]: 1
combination Emax [2]: 0.396
combination Emax [3]: 0.654
combination Emax [4]: 0.739
combination Emax [5]: 0.675
combination Emax [6]: 0.996

CN(C)CCCOc1ccc(-c2ccc3ncc4c(c3c2)n(C2CCOCC2)c(=O)n4C)cn1 [AZD0156] + C=CCn1c(=O)c2cnc(Nc3ccc(N4CCN(C)CC4)cc3)nc2n1-c1cccc(C(C)(C)O)n1 [AZD1775] (first compound max 1 µM, partner max 1 µM)
combination Emax [1]: 0.946
combination Emax [2]: 0.462
combination Emax [3]: 0.801
combination Emax [4]: 0.664
combination Emax [5]: 0.758
combination Emax [6]: 0.757

CC1(C)CCC(CN2CCN(c3ccc(C(=O)NS(=O)(=O)c4ccc(NCC5CCOCC5)c([N+](=O)[O-])c4)c(Oc4cnc5[nH]ccc5c4)c3)CC2)=C(c2ccc(Cl)cc2)C1 [Venetoclax] + CN(C)CCCOc1ccc(-c2ccc3ncc4c(c3c2)n(C2CCOCC2)c(=O)n4C)cn1 [AZD0156] (first compound max 1 µM, 7x7, partner max 1 µM)
combination Emax [1]: 0.926
combination Emax [2]: 0.3
combination Emax [3]: 0.222
combination Emax [4]: 0.279
combination Emax [5]: 0.229
combination Emax [6]: 0.908

Cc1c2c(nn1C)CSCc1cc(n(C)n1)CSc1cc(c3ccccc3c1)OCCCc1c(C(=O)O)n(C)c3c-2c(Cl)ccc13 [AZD5991] + C=CCn1c(=O)c2cnc(Nc3ccc(N4CCN(C)CC4)cc3)nc2n1-c1cccc(C(C)(C)O)n1 [AZD1775] (first compound max 1 µM, partner max 1 µM)
combination Emax [1]: 1
combination Emax [2]: 0.475
combination Emax [3]: 0.856
combination Emax [4]: 0.977
combination Emax [5]: 0.785
combination Emax [6]: 0.877

CN(CCO)CC[C@H](CSc1ccccc1)Nc1ccc(S(=O)(=O)NC(=O)c2ccc(N3CCC([C@@H](O)c4ccccc4-c4ccc(Cl)cc4)CC3)cc2)cc1S(=O)(=O)C(F)(F)F [AZD4320] + CCN(CCO)CCCOc1ccc2c(Nc3cc(CC(=O)Nc4cccc(F)c4)[nH]n3)ncnc2c1 [AZD2811] (first compound max 1 µM, 7x7, partner max 1 µM)
combination Emax [1]: 0.966
combination Emax [2]: 0.349
combination Emax [3]: 0.485
combination Emax [4]: 0.566
combination Emax [5]: 0.275
combination Emax [6]: 1

CC(=O)c1c(C)c2cnc(Nc3ccc(N4CCNCC4)cn3)nc2n(C2CCCC2)c1=O [Palbociclib] + CN(CC[C@H](CSC1=CC=CC=C1)NC2=C(C=C(C=C2)S(=O)(=O)NC(=O)C3=CC=C(C=C3)N4CCC(CC4)[C@H](C5=CC=CC=C5C6=CC=C(C=C6)Cl)O)S(=O)(=O)C(F)(F)F)CCO [AZD4320] (first compound max 10 µM, 7x7, partner max 1 µM)
combination Emax [3]: 0.729
combination Emax [4]: 0.592
combination Emax [5]: 0.575

C[C@@H](c1ccc2nccn2c1)n1nnc2ncc(-c3cnn(C)c3)nc21 [Savolitinib] + CN(CC[C@H](CSC1=CC=CC=C1)NC2=C(C=C(C=C2)S(=O)(=O)NC(=O)C3=CC=C(C=C3)N4CCC(CC4)[C@H](C5=CC=CC=C5C6=CC=C(C=C6)Cl)O)S(=O)(=O)C(F)(F)F)CCO [AZD4320] (first compound max 1 µM, 7x7, partner max 1 µM)
combination Emax [3]: 0.19
combination Emax [4]: 0.29
combination Emax [5]: 0.238
